Laboratory results as given in ChEMBL document CHEMBL3785074, “Molecular modeling and snake venom phospholipase A2 inhibition by phenolic compounds: Structure-activity relationship” (Eur J Med Chem, 2016).
Calls of active or inactive are those of the source. The rule behind the calls is not given here.

Tests used:
[1] = Protective activity against Daboia russellii venom-induced mortality in iv dosed Swiss albino mouse administered 60 mins after venom injection relative to untreated control; format: functional, Daboia russelii
[2] = Protective activity against Naja kaouthia venom-induced mortality in Swiss albino mouse at 100 mmol, iv administered immediately after venom injection measured after 24 hrs relative to untreated control; format: functional
[3] = Protective activity against Daboia russellii venom-induced defibrinogenation in iv dosed Swiss albino mouse assessed as venom level causing blood coagulation at 100 mmol administered immediately after venom injection (reference value: 2.5 ug); format: functional, Daboia russelii
[4] = Protective activity against Daboia russellii venom-induced mortality in Swiss albino mouse at 100 mmol, iv by measuring venom LD50 administered immediately after venom injection measured after 24 hrs (reference value: 2.28ug); format: functional, Daboia russelii
[5] = Lipophilicity, log P of compound; format: physicochemical; details: octanol/water; read-out: logP
[6] = Protective activity against Daboia russellii venom-induced hemorrhage in Swiss albino mouse at 100 mmol, iv assessed as hemorhagic lesion administered immediately after venom injection measured after 24 hrs relative to untreated control; format: functional, Daboia russelii
Daboia russelii [7] = test: (§1) Protective activity against Daboia russellii venom-induced defibrinogenation in iv dosed Swiss albino mouse assessed as blood coagulation at 100 mmol administered immediately after venom injection relative to untreated control; format: functional
Daboia russelii [8] = test: Protective activity against Daboia russellii venom-induced coagulation in goat plasma assessed as increase in plasma recalcification time at 20 mmol preincubated with venom for 1 hr followed by plasma addition; format: functional, cell-free
[9] = Protective activity against Naja kaouthia venom-induced mortality in Swiss albino mouse at 100 mmol, iv by measuring venom LD50 administered immediately after venom injection measured after 24 hrs (reference value: 2.82 ug); format: functional
[10] = Protective activity against Daboia russellii venom-induced hemorrhage in Swiss albino mouse at 100 mmol, iv assessed as hemorhagic lesion by measuring […] administered immediately after venom injection measured after 24 hrs (Rvb =5 ug); format: functional, Daboia russelii
[11] = Protective activity against Daboia russellii venom-induced defibrinogenation in iv dosed Swiss albino mouse assessed as venom level causing blood coagulation at 100 mmol preincubated with venom for 1 hr followed by administration to mouse (reference value: 2.5 ug); format: functional, Daboia russelii
[12] = Protective activity against Naja kaouthia venom-induced mortality in Swiss albino mouse at 100 mmol, iv by measuring venom LD50 preincubated with venom for 1 hr followed by administration to mouse measured after 24 hrs (reference value: 2.82 ug); format: functional
[13] = (§2) Protective activity against Daboia russellii venom-induced hemorrhage in intradermally dosed Swiss albino mouse at 100 mmol assessed as hemorhagic lesion by measuring minimal […] dose preincubated with venom for 1 hr followed by administration to mouse measured after 24 hrs (reference value: 5 ug); format: functional, Daboia russelii
[14] = Protective activity against Daboia russellii venom-induced hemorrhage in intradermally dosed Swiss albino mouse at 100 mmol assessed as hemorhagic lesion preincubated with venom for 1 hr followed by administration to mouse measured after 24 hrs relative to untreated control; format: functional, Daboia russelii
[15] = Protective activity against Daboia russellii venom-induced mortality by measuring venom LD50 in Swiss albino mouse at 100 mmol, iv preincubated with venom for 1 hr followed by administration to mouse measured after 24 hrs (reference value: 2.28 ug); format: functional, Daboia russelii
Naja kaouthia [16] = test: Protective activity against Naja kaouthia venom-induced mortality in iv dosed Swiss albino mouse assessed as administered 30 to 60 mins after venom injection; format: functional, organism-based
Daboia russelii [17] = test: (§3) Protective activity against Daboia russellii venom-induced defibrinogenation in iv dosed Swiss albino mouse assessed as venom level causing blood coagulation at 100 mmol preincubated with venom for 1 hr followed by administration to mouse relative to untreated; format: functional
[18] = Protective activity against Daboia russellii venom-induced mortality in Swiss albino mouse at 100 mmol, iv administered immediately after venom injection measured after 24 hrs relative to untreated control; format: functional, Daboia russelii
[19] = Protective activity against Daboia russellii venom-induced mortality in Swiss albino mouse at 100 mmol, iv preincubated with venom for 1 hr followed by administration to mouse measured after 24 hrs relative to untreated control; format: functional, Daboia russelii
[20] = Protective activity against Naja kaouthia venom-induced mortality in Swiss albino mouse at 100 mmol, iv preincubated with venom for 1 hr followed by administration to mouse measured after 24 hrs relative to untreated control; format: functional
Daboia russelii [21] = test: Protective activity against Daboia russellii venom-induced mortality in iv dosed Swiss albino mouse administered immediately after venom injection relative to untreated control; format: functional, organism-based
[22] = target: T1, Basic phospholipase A2 VRV-PL-VIIIa (Daboia russelii) (UniProt P59071); test: Inhibition of Daboia russellii venom PLA2 activity assessed as decrease in coagulation time of egg yolk at 20 mmol preincubated with venom for 1 hr followed by egg yolk addition measured after 1 hr
T1 sequence (whole entry): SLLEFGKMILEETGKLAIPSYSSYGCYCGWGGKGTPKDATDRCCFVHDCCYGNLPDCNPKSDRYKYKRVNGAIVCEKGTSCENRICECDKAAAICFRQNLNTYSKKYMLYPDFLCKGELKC

[23] = as §1; format: functional, Daboia russelii
[24] = Protective activity against Daboia russellii venom-induced mortality in iv dosed Swiss albino mouse administered 30 mins after venom injection relative to untreated control; format: functional, Daboia russelii
[25] = as §3; format: functional, Daboia russelii
[26] = Protective activity against Naja kaouthia venom-induced mortality in Swiss albino mouse at 12 mmol, iv by measuring venom LD50 preincubated with venom for 1 hr followed by administration to mouse measured after 24 hrs (reference value: 2.82 ug); format: functional
Naja kaouthia [27] = test: Protective activity against Naja kaouthia venom-induced mortality in Swiss albino mouse at 12 mmol, iv by measuring venom LD50 administered immediately after venom injection measured after 24 hrs (reference value: 2.82 ug); format: functional, organism-based
[28] = Protective activity against Daboia russellii venom-induced hemorrhage in Swiss albino mouse at 12 mmol, iv assessed as hemorhagic lesion by measuring […] administered immediately after venom injection measured after 24 hrs (Rvb =5 ug); format: functional, Daboia russelii
[29] = Protective activity against Daboia russellii venom-induced mortality by measuring venom LD50 in Swiss albino mouse at 12 mmol, iv preincubated with venom for 1 hr followed by administration to mouse measured after 24 hrs (reference value: 2.28 ug); format: functional, Daboia russelii
[30] = as §2, with “12” for “100”; format: functional, Daboia russelii
[31] = Protective activity against Daboia russellii venom-induced mortality in Swiss albino mouse at 12 mmol, iv by measuring venom LD50 administered immediately after venom injection measured after 24 hrs (reference value: 2.28ug); format: functional, Daboia russelii
[32] = Protective activity against Daboia russellii venom-induced mortality by measuring venom LD50 in Swiss albino mouse at 6 mmol, iv preincubated with venom for 1 hr followed by administration to mouse measured after 24 hrs (reference value: 2.28 ug); format: functional, Daboia russelii
[33] = as §2, with “6” for “100”; format: functional, Daboia russelii
[34] = Protective activity against Daboia russellii venom-induced mortality in Swiss albino mouse at 6 mmol, iv by measuring venom LD50 administered immediately after venom injection measured after 24 hrs (reference value: 2.28ug); format: functional, Daboia russelii
[35] = Protective activity against Daboia russellii venom-induced hemorrhage in intradermally dosed Swiss albino mouse at 6 mmol assessed as hemorhagic lesion preincubated with venom for 1 hr followed by administration to mouse measured after 24 hrs relative to untreated control; format: functional, Daboia russelii
[36] = Protective activity against Daboia russellii venom-induced mortality in Swiss albino mouse at 6 mmol, iv preincubated with venom for 1 hr followed by administration to mouse measured after 24 hrs relative to untreated control; format: functional, Daboia russelii
[37] = Protective activity against Daboia russellii venom-induced hemorrhage in Swiss albino mouse at 6 mmol, iv assessed as hemorhagic lesion by measuring […] administered immediately after venom injection measured after 24 hrs (Rvb =5 ug); format: functional, Daboia russelii
[38] = Protective activity against Daboia russellii venom-induced hemorrhage in Swiss albino mouse at 6 mmol, iv assessed as hemorhagic lesion administered immediately after venom injection measured after 24 hrs relative to untreated control; format: functional, Daboia russelii
[39] = Protective activity against Naja kaouthia venom-induced mortality in Swiss albino mouse at 6 mmol, iv by measuring venom LD50 administered immediately after venom injection measured after 24 hrs (reference value: 2.82 ug); format: functional
[40] = Protective activity against Naja kaouthia venom-induced mortality in Swiss albino mouse at 6 mmol, iv preincubated with venom for 1 hr followed by administration to mouse measured after 24 hrs relative to untreated control; format: functional
[41] = Protective activity against Daboia russellii venom-induced mortality in Swiss albino mouse at 6 mmol, iv administered immediately after venom injection measured after 24 hrs relative to untreated control; format: functional, Daboia russelii
[42] = Protective activity against Naja kaouthia venom-induced mortality in Swiss albino mouse at 6 mmol, iv by measuring venom LD50 preincubated with venom for 1 hr followed by administration to mouse measured after 24 hrs (reference value: 2.82 ug); format: functional
[43] = Protective activity against Naja kaouthia venom-induced mortality in Swiss albino mouse at 6 mmol, iv administered immediately after venom injection measured after 24 hrs relative to untreated control; format: functional

| SMILES | Activity [1] [%] | fold change (FC) [2] | Activity [3] [µg] | LD50 [4] [µg] | logP [5] | fold change (FC) [6] | fold change (FC) (Daboia russelii [7]) | Activity (Daboia russelii [8]) | LD50 [9] [µg] | MHC [10] [µg] | Activity [11] [µg] | LD50 [12] [µg] | MHC [13] [µg] | fold change (FC) [14] | LD50 [15] [µg] | Activity (Naja kaouthia [16]) | fold change (FC) (Daboia russelii [17]) | fold change (FC) [18] | fold change (FC) [19] | fold change (FC) [20] | also measured |
| --- | --- | --- | --- | --- | --- | --- | --- | --- | --- | --- | --- | --- | --- | --- | --- | --- | --- | --- | --- | --- | --- |
| O=Cc1ccc(O)cc1O | 10 | 1.6 | 2.5 | 100 | 1.19 | 1 | inactive | Active | 8 | 5 | 2.5 | 3 | 50 | 10 | 6 | inactive | inactive | 2.5 | 2.6 | 1 |  |
| OCc1cccc(O)c1O |  | 2 | 2.5 | 100 |  | 2 | inactive | Active | 10 | 10 | 2.5 | 6 | 15 | 3 | 18 | inactive | inactive | 2.5 | 8 | 2.1 |  |
| COc1cccc(CO)c1O | 10 | 2 | 3.5 | 150 |  | 2 |  | Active | 10 | 10 | 25 | 9 | 40 | 8 | 25 | inactive |  | 3.75 | 11.2 | 3.2 | Activity (Daboia russelii [21]): Active; inhibition [22]: Active; fold change (FC) [23]: 1.5; Activity [24]: 40%; fold change (FC) [25]: 10 |
| CC(=O)Oc1ccccc1C(=O)O [ASPIRIN] |  |  |  |  | 1.24 |  |  |  |  |  |  |  |  |  |  |  |  |  |  |  | LD50 [26]: 3 µg; LD50 (Naja kaouthia [27]): inactive; MHC [28]: 10 µg; LD50 [29]: 6.6 µg; MHC [30]: 100 µg; LD50 [31]: 50 µg |
| COc1ccc(C(=O)O)c(O)c1 [4-METHOXYSALICYLIC ACID] |  |  |  |  | 1.21 |  |  |  |  |  |  |  |  |  |  |  |  |  |  |  | LD50 [32]: 22 µg; MHC [33]: 20 µg; LD50 [34]: 150 µg; fold change (FC) [35]: 4; fold change (FC) [36]: 9.8; MHC [37]: 10 µg; fold change (FC) [38]: 2; LD50 [39]: 10 µg; fold change (FC) [40]: 3.2; fold change (FC) [41]: 3.75; LD50 [42]: 9 µg; fold change (FC) [43]: 2 |
